Measured values reported in the NIST ThermoML archive (doi:10.1007/s10765-009-0568-4).
“And” between values parts separate entries of the source, which are not always exact repeats. Equal entries are not always repeated.

Test: molar heat capacity at constant pressure
Settings: 101.33 kPa, Crystal

O=C([O-])c1ccccc1.[K+] [potassium benzoate]
Settings | molar heat capacity at constant pressure
78.05 K | 64.02 J/K/mol
79.77 K | 65.4 J/K/mol
80 K | 66.51 J/K/mol
82.44 K | 67.11 J/K/mol
85 K | 69.25 J/K/mol
85.05 K | 69.06 J/K/mol
87.58 K | 70.57 J/K/mol
90 K | 71.99 J/K/mol
90.05 K | 72.16 J/K/mol
92.46 K | 73.51 J/K/mol
94.82 K | 75.08 J/K/mol
95 K | 74.71 J/K/mol
97.13 K | 76.49 J/K/mol
99.4 K | 77.52 J/K/mol
100 K | 77.41 J/K/mol
101.6 K | 78.59 J/K/mol
103.8 K | 79.84 J/K/mol
105 K | 80.09 J/K/mol
106 K | 81.03 J/K/mol
108.1 K | 82.38 J/K/mol
110 K | 82.77 J/K/mol
110.2 K | 83.34 J/K/mol
112.2 K | 84.3 J/K/mol
114.2 K | 85.15 J/K/mol
115 K | 85.42 J/K/mol
116.3 K | 86.65 J/K/mol
118.3 K | 87.5 J/K/mol
120 K | 88.06 J/K/mol
120.4 K | 88.67 J/K/mol
123.5 K | 90.49 J/K/mol
125 K | 90.69 J/K/mol
127.5 K | 92.84 J/K/mol
130 K | 93.3 J/K/mol
131.5 K | 94.64 J/K/mol
135 K | 95.9 J/K/mol
135.4 K | 96.31 J/K/mol
139.4 K | 98.35 J/K/mol
140 K | 98.48 J/K/mol
143.3 K | 100.4 J/K/mol
145 K | 101 J/K/mol
147.2 K | 102.3 J/K/mol
150 K | 103.6 J/K/mol
151.1 K | 103.9 J/K/mol
154.9 K | 105.6 J/K/mol
155 K | 106.1 J/K/mol
158.6 K | 107.2 J/K/mol
160 K | 108.6 J/K/mol
162.3 K | 108.9 J/K/mol
165 K | 111.2 J/K/mol
166 K | 110.7 J/K/mol
169.7 K | 112.6 J/K/mol
170 K | 113.6 J/K/mol
173.3 K | 114.5 J/K/mol
175 K | 116.1 J/K/mol
176.9 K | 115.9 J/K/mol
180 K | 118.6 J/K/mol
180.4 K | 117.8 J/K/mol
185 K | 121 J/K/mol
185.2 K | 119.9 J/K/mol
190 K | 123.5 J/K/mol
190.3 K | 122.8 J/K/mol
194.3 K | 124.8 J/K/mol
195 K | 125.9 J/K/mol
198.3 K | 127 J/K/mol
200 K | 128.3 J/K/mol
202.2 K | 129 J/K/mol
205 K | 130.6 J/K/mol
206.2 K | 131.6 J/K/mol
210 K | 133 J/K/mol
210.2 K | 133.5 J/K/mol
214.1 K | 135.5 J/K/mol
215 K | 135.4 J/K/mol
218.1 K | 137.3 J/K/mol
220 K | 137.7 J/K/mol
222.1 K | 139.3 J/K/mol
225 K | 140 J/K/mol
226.1 K | 141 J/K/mol
230 K | 142.3 J/K/mol
230.1 K | 142.7 J/K/mol
234 K | 144.9 J/K/mol
235 K | 144.6 J/K/mol
237.9 K | 146.3 J/K/mol
240 K | 146.9 J/K/mol
243.1 K | 149 J/K/mol
245 K | 149.2 J/K/mol
248.2 K | 151.2 J/K/mol
250 K | 151.4 J/K/mol
252.2 K | 152.7 J/K/mol
255 K | 153.7 J/K/mol
256.1 K | 154.1 J/K/mol
260 K | 155.9 J/K/mol
260.1 K | 156.2 J/K/mol
264.1 K | 158.2 J/K/mol
265 K | 158.1 J/K/mol
268.1 K | 160.2 J/K/mol
270 K | 160.3 J/K/mol
272.1 K | 161.4 J/K/mol
275 K | 162.5 J/K/mol
276.1 K | 163.3 J/K/mol
280 K | 165.1 J/K/mol and 164.6 J/K/mol
284 K | 166.4 J/K/mol
285 K | 166.8 J/K/mol
287.9 K | 168.1 J/K/mol
290 K | 168.9 J/K/mol
291.8 K | 169.9 J/K/mol
295 K | 171 J/K/mol
295.9 K | 171.5 J/K/mol
298.15 K | 172.3 J/K/mol
299.8 K | 172.8 J/K/mol
300 K | 173.1 J/K/mol
303.7 K | 174.3 J/K/mol
305 K | 175.2 J/K/mol
307.8 K | 176.1 J/K/mol
310 K | 177.3 J/K/mol
311.7 K | 177.6 J/K/mol
315 K | 179.3 J/K/mol
315.6 K | 179.5 J/K/mol
319.5 K | 180.7 J/K/mol
320 K | 181.4 J/K/mol
323.5 K | 182.2 J/K/mol
325 K | 183.4 J/K/mol
327.4 K | 183.7 J/K/mol
330 K | 185.4 J/K/mol
331.4 K | 185.4 J/K/mol
335 K | 187.4 J/K/mol
335.5 K | 187.1 J/K/mol
339.4 K | 188.7 J/K/mol
340 K | 189.4 J/K/mol
343.5 K | 190.7 J/K/mol
345 K | 191.4 J/K/mol
346.5 K | 192.2 J/K/mol
349.5 K | 193.4 J/K/mol
350 K | 193.3 J/K/mol
353.5 K | 195 J/K/mol
355 K | 195.3 J/K/mol
357.5 K | 196.3 J/K/mol
360 K | 197.2 J/K/mol
361.4 K | 197.9 J/K/mol
365 K | 199.1 J/K/mol
365.3 K | 199.4 J/K/mol
369.2 K | 200.8 J/K/mol
370 K | 201 J/K/mol
373.3 K | 202.3 J/K/mol
375 K | 202.9 J/K/mol
377.4 K | 203.7 J/K/mol
380 K | 204.8 J/K/mol
381.4 K | 205.6 J/K/mol
385 K | 206.6 J/K/mol
385.4 K | 206.8 J/K/mol
389.4 K | 208.1 J/K/mol
390 K | 208.4 J/K/mol
393.4 K | 209.9 J/K/mol
395 K | 210.3 J/K/mol
397.3 K | 211.1 J/K/mol
